# Values of other authors in patent publication US20110302824A1, “PROCESS FOR LIQUEFYING A CELLULOSIC MATERIAL” (SHELL OIL COMPANY, priority 2010, published 2011).
# Details: polarity of the (co-)solvent of the liquefaction medium; octanol-water
row,Structure (SMILES),Solvent Log P
1,"CCCCCCCCCCCC [w/C12, dodecane]",6.1
2,"CC1CCC(=O)O1 (centres unmarked) [w/gVL, gamma-valerolactone]",−0.6
